Consider one molecule from article PMC3527126 (Endocrine-related cancer, 2011).

The assay addresses PKCδ (Homo sapiens, UniProt Q05655). Description: Omnia fluorescent. The assay is classed as biochemical.

PKCδ, sequence (Q05655 whole entry): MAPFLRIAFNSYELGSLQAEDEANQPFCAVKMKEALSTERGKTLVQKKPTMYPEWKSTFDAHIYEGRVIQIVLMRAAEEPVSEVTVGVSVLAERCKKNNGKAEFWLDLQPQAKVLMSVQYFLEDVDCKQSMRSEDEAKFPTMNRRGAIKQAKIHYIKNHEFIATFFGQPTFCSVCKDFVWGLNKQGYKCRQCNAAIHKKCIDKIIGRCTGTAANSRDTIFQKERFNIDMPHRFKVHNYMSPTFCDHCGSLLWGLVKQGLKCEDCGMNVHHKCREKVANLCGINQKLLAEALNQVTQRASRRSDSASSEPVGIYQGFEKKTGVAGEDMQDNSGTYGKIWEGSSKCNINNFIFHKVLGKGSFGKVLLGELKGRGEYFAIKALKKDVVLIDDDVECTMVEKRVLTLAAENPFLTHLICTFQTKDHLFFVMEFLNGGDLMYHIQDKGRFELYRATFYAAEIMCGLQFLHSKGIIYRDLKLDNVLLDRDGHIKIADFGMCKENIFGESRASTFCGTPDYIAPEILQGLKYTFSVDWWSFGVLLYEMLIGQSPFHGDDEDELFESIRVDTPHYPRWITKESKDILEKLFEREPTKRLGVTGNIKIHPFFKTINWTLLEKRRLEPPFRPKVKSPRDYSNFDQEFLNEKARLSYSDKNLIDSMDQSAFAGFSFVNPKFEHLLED

Molecule `CC(=O)c1c(O)c(C)c(O)c(Cc2c(O)c3c(c(C(=O)/C=C/c4ccccc4)c2O)OC(C)(C)C=C3)c1O` [rottlerin] showed an IC50 of 200 nM.

What is called IC50 is the concentration needed to halve the response being measured. A lower IC50 goes with higher potency.
